In US4046904A, “Novel penicillin, and its preparation and use” (Sumitomo Chemical Company, Limited, priority 1975, dated 1977):
In brackets after ≈: the same amount, converted by molar mass. Read-outs that look alike come from different tables or passages of the source.

How the values were obtained:
[1] = solubility in pharmaceutical diluents; format: physicochemical; settings: e.g. water; relative to said penicillins
Klebsiella pneumoniae [2] = experiment: MIC (Table 3); format: cell-based; settings: Klebsiella pneumoniae strain PCI602; sodium salt
Description: (§1) The minimum inhibitory concentrations obtained with Compound (I) and Compound (C) against the following organisms representing 6 genera are shown in Table 3.
(§2) Note: Compound (I) and Compound (C) were subjected to the test in the form of the sodium salt.

Proteus mirabilis = experiment: MIC (Table 3); format: cell-based
Description: as §1, §2

Pseudomonas aeruginosa [3] = experiment: MIC (Table 3); format: cell-based; settings: Pseudomonas aeruginosa strain 104; sodium salt
Description: as §1, §2

Staphylococcus aureus [4] = experiment: MIC (Table 3); format: cell-based
Description: as §1, §2

Escherichia coli [5] = experiment: MIC (Table 3); format: cell-based
Description: as §1, §2

Proteus vulgaris [6] = experiment: MIC (Table 3); format: cell-based; settings: Proteus vulgaris strain HX19; sodium salt
Description: as §1, §2

[7] = Protein-binding rate in human serum (Table 6); format: in vitro ADME; settings: for fraction unbound: human, serum, sodium salt
Description: The following data are related to the pharmacokinetic profiles of Compound (I) compared with Compound (C).
as §2

[8] = Urinary excretion rate in rats after intramuscular administration (Table 8); format: in vivo, Wistar-HLA strain rats; settings: rat, urine, im, 20 mg/kg, male rats, intramuscular 20 mg/kg, sodium salt
Description: The urinary excretion rates of Compound (I) and Compound (C) following an intramuscular administration of 20 mg/kg in male Wistar-HLA strain rats are shown in Table 8.
as §2

Klebsiella pneumoniae [9] = experiment: Intraperitoneal infection in mice, median protective dose (Table 2); format: in vivo; settings: subcutaneous; for ED50: sc, 1 and 4 hours after infection, sodium salt, read-out: PD50
Description: (§3) Note: Compound (I), Compound (A) and Compound (B) were subjected to the test in the form of the sodium salt. For each test, eight male ICR-SLC strain mice were used at each dose level. MIC was determined by the nutrient broth dilution method. In determination of PD50, subcutaneous treatment was carried out twice, i.e. 1 and 4 hours after infection.

Pseudomonas aeruginosa [10] = experiment: as above; format: in vivo; settings: subcutaneous; for ED50: sc, 1 and 4 hours after infection, sodium salt, read-out: PD50
Description: as §3

Escherichia coli [11] = experiment: as above; format: in vivo; settings: sc, subcutaneous, 1 and 4 hours after infection, sodium salt, read-out: PD50
Description: as §3

Enterobacter aerogenes = experiment: Median MIC, clinical isolates, agar-plate dilution (Table 1); format: cell-based
Description: (§4) Note: Compound (I) and Compound (A) were subjected to the test in the form of the sodium salt. The minimum inhibitory concentration (MIC) was determined using the agar-plate dilution method recommended by Japan Society of Chemotherapy.

Klebsiella pneumoniae [12] = experiment: as above; format: cell-based
Description: as §4

Proteus morganii = experiment: as above; format: cell-based
Description: as §4

Pseudomonas aeruginosa [13] = experiment: as above; format: cell-based; settings: 49 clinical isolates, sodium salt, read-out: Median minimum inhibitory concentration
Description: as §4

Escherichia = experiment: as above; format: cell-based; settings: read-out: Median minimum inhibitory concentration
Description: as §4

Serratia = experiment: as above; format: cell-based
Description: as §4

Staphylococcus aureus [14] = experiment: as above; format: cell-based; settings: 37 clinical isolates, sodium salt, read-out: Median minimum inhibitory concentration
Description: as §4

Proteus vulgaris [15] = experiment: as above; format: cell-based
Description: as §4

Pseudomonas aeruginosa [16] = experiment: MIC, nutrient broth dilution (Table 5); format: cell-based; settings: Pseudomonas aeruginosa strain TS, sodium salt
Description: (§5) The relative activities of Compound (I) and Compound (C) against various intraperitioneal infections in mice evaluated by the minimum inhibitory concentrations and the means median protective doses (subcutaneously administered) are shown in Table 5.
(§6) Note: Compound (I) and Compound (C) were subjected to the test in the form of the sodium salt. For each test, five male ICR-SLC strain mice were used at each dose level. MIC was determined by the nutrient broth dilution method. In determination of PD50, subsutaneous treatment was carried out three times, i.e. 1, 3 and 5 hours after infection.

Streptococcus faecalis [17] = experiment: MIC, nutrient broth dilution (Table 5); format: cell-based; settings: Enterococcus faecalis, Streptococcus faecalis strain F10, sodium salt
Description: as §5, §6

Staphylococcus aureus [18] = experiment: MIC, nutrient broth dilution (Table 5); format: cell-based; settings: Staphylococcus aureus strain A24, sodium salt
Description: as §5, §6

Streptococcus faecalis [19] = experiment: Median MIC, clinical isolates, agar-plate dilution (Table 4); format: cell-based
Description: (§7) Note: Compound (I) and Compound (C) were subjected to the test in the form of the sodium salt. MIC was determined using the agar-plate dilution method.

Staphylococcus aureus [20] = experiment: as above; format: cell-based
Description: as §7

[21] = Serum level in mice after subcutaneous administration (Table 7); format: in vivo, ICR-SLC strain mice; settings: mouse, sc, subcutaneous 50 mg/kg, sodium salt
Description: The peak serum concentrations of Compound (I) and Compound (C) in ICR strain mice following subcutaneous administration at 50 mg/kg are shown in Table 7.
Note: Compound (I) and Compound (C) were subjected to the test in the form of the sodium salt. For the test, three male ICR-SLC strain mice were used. The bioassay was carried out according to the disc method using Bacillus subtilis.

Compound: CC1(C)S[C@@H]2[C@H](NC(=O)[C@H](NC(=O)c3ccnnc3O)c3ccc(O)cc3)C(=O)N2[C@H]1C(=O)O [Compound (I), 6-[D-2-(3-hydroxypyridazine-4-carbonamido)-2-(p-hydroxyphenyl)acetamido]penicillanic acid]
- solubility in pharmaceutical diluents [1]: higher solubility
- MIC (Klebsiella pneumoniae [2]): 12.5 µg/mL
- antibacterial activity relative to Compound (C) (Proteus mirabilis; Proteus mirabilis): inferior
- MIC (Proteus mirabilis; Proteus mirabilis strain GN2425, sodium salt): 6.25 µg/mL
- MIC (Pseudomonas aeruginosa [3]): 1.56 µg/mL
- antibacterial activity relative to Compound (C) (Staphylococcus aureus [4]; Staphylococcus aureus): superior
- MIC (Staphylococcus aureus [4]; Staphylococcus aureus strain 209P, sodium salt): 0.39 µg/mL
- antibacterial activity relative to Compound (C) (Escherichia coli [5]; Escherichia coli): inferior
- MIC (Escherichia coli [5]; Escherichia coli strain NIHJ, sodium salt): 6.25 µg/mL
- MIC (Proteus vulgaris [6]): 0.025 µg/mL
- protein-binding rate relative to Compound (C) ([7]; human serum): lower protein-binding rate
- fraction unbound ([7]; Ultracentrifugation method): 0.4
- fraction unbound ([7]; Ultrafiltration method): 0.42
- dose excreted at 6 h ([8]; 0-6 hr.): 54%
- dose excreted at 24 h ([8]; 0-24 hr.): 55%
- dose excreted at 24 h ([8]; 6-24 hr.): 1%
- PD50 relative to Compound (A) and Compound (B) (Klebsiella pneumoniae [9]; mice): markedly superior
- ED50 (Klebsiella pneumoniae [9]; K. pneumoniae strain No. 1, male ICR-SLC mice): 25 mg/kg
- ED50 (Klebsiella pneumoniae [9]; K. pneumoniae strain No. 6, male ICR-SLC mice): 36 mg/kg
- ED50 (Klebsiella pneumoniae [9]; K. pneumoniae strain No. 20, male ICR-SLC mice): 31 mg/kg
- PD50 relative to Compound (A) and Compound (B) (Pseudomonas aeruginosa [10]; mice): markedly superior
- ED50 (Pseudomonas aeruginosa [10]; P. aeruginosa strain NC-5, male ICR-SLC mice): 22 mg/kg
- ED50 (Pseudomonas aeruginosa [10]; P. aeruginosa strain T, male ICR-SLC mice): 35 mg/kg
- ED50 (Escherichia coli [11]; E. coli strain NIHJ, male ICR-SLC mice): 3.2 mg/kg
- ED50 (Escherichia coli [11]; E. coli strain No. 37, male ICR-SLC mice): 31 mg/kg
- MIC50 (Enterobacter aerogenes; Klebsiella aerogenes, 8 clinical isolates, sodium salt, read-out: Median minimum inhibitory concentration): 25 µg/mL
- antibacterial activity relative to Compound (A) (Enterobacter aerogenes; clinical isolates): superior
- MIC50 (Klebsiella pneumoniae [12]; 26 clinical isolates, sodium salt, read-out: Median minimum inhibitory concentration): 21 µg/mL
- antibacterial activity relative to Compound (A) (Klebsiella pneumoniae [12]; clinical isolates): superior
- MIC50 (Proteus morganii; Morganella morganii, 14 clinical isolates, sodium salt, read-out: Median minimum inhibitory concentration): 4.4 µg/mL
- antibacterial activity relative to Compound (A) (Proteus morganii; clinical isolates): superior
- MIC50 (Pseudomonas aeruginosa [13]): 10 µg/mL
- MIC50 (Escherichia): 12 µg/mL (≈ 24.6 µM)
- MIC50 (Serratia; 6 clinical isolates, sodium salt, read-out: Median minimum inhibitory concentration): 31 µg/mL
- antibacterial activity relative to Compound (A) (Serratia; clinical isolates): superior
- MIC50 (Staphylococcus aureus [14]): 13 µg/mL
- MIC50 (Proteus vulgaris [15]; 7 clinical isolates, sodium salt, read-out: Median minimum inhibitory concentration): 8.8 µg/mL
- antibacterial activity relative to Compound (A) (Proteus vulgaris [15]; clinical isolates): superior
- MIC (Pseudomonas aeruginosa [16]): 6.25 µg/mL
- MIC (Streptococcus faecalis [17]): 1.56 µg/mL
- MIC (Staphylococcus aureus [18]): 0.39 µg/mL
- MIC50 (Streptococcus faecalis [19]; Enterococcus faecalis, 23 strains, agar-plate dilution, sodium salt, read-out: Median minimum inhibitory concentration): 2 µg/mL
- antibacterial activity relative to Compound (C) (Streptococcus faecalis [19]; clinical isolates): superior
- MIC50 (Staphylococcus aureus [20]; 37 strains, agar-plate dilution, sodium salt, read-out: Median minimum inhibitory concentration): 15 µg/mL
- antibacterial activity relative to Compound (C) (Staphylococcus aureus [20]; clinical isolates): superior
- concentration at 0.5 h ([21]; 1/2 hr.): 35000 ng/mL
- concentration at 0.25 h ([21]; 1/4 hr.): 69000 ng/mL
- concentration at 1 h ([21]; 1 hr.): 14000 ng/mL
- concentration at 2 h ([21]; 2 hr.): 3000 ng/mL
